Target: T1, C-terminal His6-tagged, recombinant, human JAK2, amino acids 808-end (Homo sapiens, UniProt O60674)
T1 construct: His6 (C); purchased Upstate Biotechnology MA; host or cells: baculovirus in Sf21 cells
Assay: JAK2 kinase Alphascreen assay (Method 1)
Format: biochemical
Conditions: Alphascreen, 150 pM JAK2 enzyme, 5 mM ATP, 80 nM Tyk2 peptide, 60 minutes room temperature; read-out: IC50 Assay (Method 1)
Experimental: To measure JAK2 kinase activity, a commercially available purified enzyme may be used. […] After incubation of the kinase with a biotinylated substrate and adenosine triphosphate (ATP) for 60 minutes at room temperature, the kinase reaction may be stopped by the addition of 30 mM ethylenediaminetetraacetic acid (EDTA). The reaction may be performed in 384 well microtitre plates and the reaction products may be detected with the addition of streptavidin coated Donor Beads and phosphotyrosine-specific antibodies coated Acceptor Beads using the EnVision Multilabel Plate Reader after an overnight incubation at room temperature. “Tween 20” is a registered trademark of ICI Americas, Inc.

T1 sequence (O60674 808-1132 limits assumed): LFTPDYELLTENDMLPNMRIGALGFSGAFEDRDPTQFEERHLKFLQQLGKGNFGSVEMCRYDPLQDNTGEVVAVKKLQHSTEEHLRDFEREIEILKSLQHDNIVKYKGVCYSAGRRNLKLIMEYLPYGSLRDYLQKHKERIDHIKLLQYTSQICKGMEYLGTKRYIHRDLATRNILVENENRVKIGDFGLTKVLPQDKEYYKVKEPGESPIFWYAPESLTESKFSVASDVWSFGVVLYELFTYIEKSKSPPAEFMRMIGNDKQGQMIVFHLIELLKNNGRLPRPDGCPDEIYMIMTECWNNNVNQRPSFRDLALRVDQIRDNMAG

Q: `CC(Nc1nc(Nc2cn(C)cn2)c2ccc(Cl)nc2n1)c1ncc(F)cc1F` (racemic) [Example 44, 7-Chloro-N^2-[1-(3,5-difluoropyridin-2-yl)ethyl]-N^4-(1-methyl-1H-imidazol-4-yl)pyrido[2,3-d]pyrimidine-2,4-diamine] was tested. Which IC50 did it give?
A: The IC50 was 3 nM.

Q: Which IC50 does the source give for `C[C@H](Nc1nc(Nc2cn(C)cn2)c2cnn(CCO)c2n1)c1ncc(F)cn1` [Example 15, 2-(6-{[(1S)-1-(5-Fluoropyrimidin-2-yl)ethyl]amino}-4-[(1-methyl-1H-imidazol-4-yl)amino]-1H-pyrazolo[3,4-d]pyrimidin-1-yl)ethanol] here?
A: Its IC50 is 3 nM.

Q: Which IC50 does the source give for `C[C@H](Nc1nc(Nc2cn(C)cn2)c2cccnc2n1)c1ncc(F)cn1` [Example 16, N^2-[(1S)-1-(5-Fluoropyrimidin-2-yl)ethyl]-N^4-(1-methyl-1H-imidazol-4-yl)pyrido[2,3-d]pyrimidine-2,4-diamine] here?
A: The IC50 was < 3 nM.

Q: `CC(Nc1nc(Nc2cn(C)cn2)c2ccsc2n1)c1ncc(F)cn1` (single isomer, unassigned) [Example 1(a), N^2-[1-(5-Fluoropyrimidin-2-yl)ethyl]-N^4-(1-methyl-1H-imidazol-4-yl)thieno[2,3-d]pyrimidine-2,4-diamine] was tested. Which IC50 did it give?
A: Its IC50 is 28800 nM.

Q: `Cc1ccc(S(=O)(=O)n2ccc3c(Nc4cn(C)cn4)nc(N[C@@H](C)c4ncc(F)cn4)nc32)cc1` [Example 3, N^2-[(1S)-1-(5-Fluoropyrimidin-2-yl)ethyl]-N^4-(1-methyl-1H-imidazol-4-yl)-7-[(4-methylphenyl)sulfonyl]-7H-pyrrolo[2,3-d]pyrimidine-2,4-diamine] was tested. Which IC50 did it give?
A: The IC50 was 213 nM.

Q: With `CC(Nc1nc(Nc2cn(C)cn2)c2cccnc2n1)c1ncc(F)cc1F` (single isomer, unassigned) [Example 12(b), N^2-[1-(3,5-Difluoropyridin-2-yl)ethyl]-N^4-(1-methyl-1H-imidazol-4-yl)pyrido[2,3-d]pyrimidine-2,4-diamine] as the compound, how does the IC50 read?
A: The IC50 was 470 nM.

Q: `COc1ccc2nc(NC(C)c3ncc(F)cc3F)nc(Nc3cn(C)cn3)c2c1` (racemic) [Example 29, N^2-[1-(3,5-Difluoropyridin-2-yl)ethyl]-6-methoxy-N^4-(1-methyl-1H-imidazol-4-yl)quinazoline-2,4-diamine] was tested. Which IC50 did it give?
A: The IC50 was 500 nM.

Q: Which IC50 does the source give for `CC(Nc1nc2c(c(Nc3cn(C)cn3)n1)CCC2)c1ncc(F)cn1` (single isomer, unassigned) [Example 8(b), N^2-[1-(5-Fluoropyrimidin-2-yl)ethyl]-N^4-(1-methyl-1H-imidazol-4-yl)-6,7-dihydro-5H-cyclopenta[d]pyrimidine-2,4-diamine] here?
A: Its IC50 is < 3 nM.

Q: Which IC50 does the source give for `CC(Nc1nc(Nc2cn(C)cn2)c2ccccc2n1)c1ncc(F)cn1` (single isomer, unassigned) [Example 45(a), N^2-[1-(5-Fluoropyrimidin-2-yl)ethyl]-N^4-(1-methyl-1H-imidazol-4-yl)quinazoline-2,4-diamine] here?
A: The IC50 was 64 nM.

Q: With `COc1ccc2c(Nc3cn(C)cn3)nc(N[C@@H](C)c3ncc(F)cn3)nc2c1` [Example 30, N^2-[(1S)-1-(5-Fluoropyrimidin-2-yl)ethyl]-7-methoxy-N^4-(1-methyl-1H-imidazol-4-yl)quinazoline-2,4-diamine] as the compound, how does the IC50 read?
A: The IC50 was 4 nM.

Q: How did the IC50 turn out when `COCC(Nc1nc(Nc2cn(C)cn2)c2cnn(C)c2n1)c1ncc(F)cc1F` (single isomer, unassigned) [Example 13(a)] was run?
A: The IC50 was 3240 nM.

Q: `CC(Nc1nc2c(c(Nc3cn(C)cn3)n1)CNC2)c1ncc(F)cn1` (single isomer, unassigned) [Example 18(a), N^2-[1-(5-Fluoropyrimidin-2-yl)ethyl]-N^4-(1-methyl-1H-imidazol-4-yl)-6,7-dihydro-5H-pyrrolo[3,4-d]pyrimidine-2,4-diamine] was tested. Which IC50 did it give?
A: The IC50 was 4300 nM.

Q: How did the IC50 turn out when `CC(Nc1nc2c(c(Nc3cn(C)cn3)n1)CNC2)c1ncc(F)cn1` (single isomer, unassigned) [Example 18(b), N^2-[1-(5-Fluoropyrimidin-2-yl)ethyl]-N^4-(1-methyl-1H-imidazol-4-yl)-6,7-dihydro-5H-pyrrolo[3,4-d]pyrimidine-2,4-diamine] was run?
A: Its IC50 is 450 nM.

Q: For `C[C@H](Nc1nc(Nc2cn(C)cn2)c2ccccc2n1)c1ncc(F)cn1` [Example 45, N^2-[(1S)-1-(5-Fluoropyrimidin-2-yl)ethyl]-N^4-(1-methyl-1H-imidazol-4-yl)quinazoline-2,4-diamine], which IC50 is on record?
A: The IC50 was < 3 nM.

Q: Which IC50 does the source give for `CC(Nc1nc(Nc2cn(C)cn2)c2ccncc2n1)c1ncc(F)cc1F` (single isomer, unassigned) [Example 43(b), N^2-[1-(3,5-Difluoropyridin-2-yl)ethyl]-N^4-(1-methyl-1H-imidazol-4-yl)pyrido[3,4-d]pyrimidine-2,4-diamine] here?
A: Its IC50 is 1180 nM.

Q: With `CC(Nc1nc(Nc2cn(C)cn2)c2ccn(C)c2n1)c1ncc(F)cn1` (single isomer, unassigned) [Example 23(a), N^2-[1-(5-Fluoropyrimidin-2-yl)ethyl]-7-methyl-N^4-(1-methyl-1H-imidazol-4-yl)-7H-pyrrolo[2,3-d]pyrimidine-2,4-diamine] as the compound, how does the IC50 read?
A: Its IC50 is < 3 nM.

Q: For `CC(Nc1nc(Nc2cn(C)cn2)c2nccnc2n1)c1ncc(F)cn1` (single isomer, unassigned) [Example 10(b), N^2-[1-(5-Fluoropyrimidin-2-yl)ethyl]-N^4-(1-methyl-1H-imidazol-4-yl)pteridine-2,4-diamine], which IC50 is on record?
A: The IC50 was 200 nM.

Q: How did the IC50 turn out when `CC(Nc1nc(Nc2cn(C)cn2)c2ccc(O)nc2n1)c1ncc(F)cc1F` (racemic) [Example 35, 2-{[1-(3,5-Difluoropyridin-2-yl)ethyl]amino}-4-[(1-methyl-1H-imidazol-4-yl)amino]pyrido[2,3-d]pyrimidin-7-ol] was run?
A: The IC50 was 3 nM.

Q: How did the IC50 turn out when `C[C@H](Nc1ccc2c(Nc3cn(C)cn3)nc(N[C@@H](C)c3ncc(F)cn3)nc2n1)c1ncc(F)cn1` [Example 39, N^2,N^7-bis[(1S)-1-(5-fluoropyrimidin-2-yl)ethyl]-N^4-(1-methyl-1H-imidazol-4-yl)pyrido[2,3-d]pyrimidine-2,4,7-triamine] was run?
A: Its IC50 is 3 nM.

Q: For `CC(Nc1nc(Nc2cn(C)cn2)c2cnn(C)c2n1)c1ncc(F)cc1F` (single isomer, unassigned) [Example 14(a), N^6-[1-(3,5-Difluoropyridin-2-yl)ethyl]-1-methyl-N^4-(1-methyl-1H-imidazol-4-yl)-1H-pyrazolo[3,4-d]pyrimidine-4,6-diamine], which IC50 is on record?
A: Its IC50 is 5400 nM.

Q: Which IC50 does the source give for `COCC(Nc1nc(Nc2cn(C)cn2)c2cnn(C)c2n1)c1ncc(F)cc1F` (single isomer, unassigned) [Example 13(b), N^6-[1-(3,5-Difluoropyridin-2-yl)-2-methoxyethyl]-1-methyl-N^4-(1-methyl-1H-imidazol-4-yl)-1H-pyrazolo[3,4-d]pyrimidine-4,6-diamine] here?
A: The IC50 was < 3 nM.

Q: With `C[C@H](Nc1nc(Nc2cn(C)cn2)c2ccc(NC3CC3)nc2n1)c1ncc(F)cn1` [Example 36, N^7-Cyclopropyl-N^2-[(1S)-1-(5-fluoropyrimidin-2-yl)ethyl]-N^4-(1-methyl-1H-imidazol-4-yl)pyrido[2,3-d]pyrimidine-2,4,7-triamine] as the compound, how does the IC50 read?
A: Its IC50 is 3 nM.

Q: `CC(Nc1nc(Nc2cn(C)cn2)c2ccc(N3CCOCC3)nc2n1)c1ncc(F)cc1F` (single isomer, unassigned) [Example 40(b), N^2-[1-(3,5-Difluoropyridin-2-yl)ethyl]-N^4-(1-methyl-1H-imidazol-4-yl)-7-morpholin-4-ylpyrido[2,3-d]pyrimidine-2,4-diamine] was tested. Which IC50 did it give?
A: Its IC50 is < 3 nM.

Q: Which IC50 does the source give for `CC(Nc1nc(Nc2cn(C)cn2)c2cnn(C)c2n1)c1ncc(F)cc1F` (single isomer, unassigned) [Example 14(b), N^6-[1-(3,5-Difluoropyridin-2-yl)ethyl]-1-methyl-N^4-(1-methyl-1H-imidazol-4-yl)-1H-pyrazolo[3,4-d]pyrimidine-4,6-diamine] here?
A: Its IC50 is < 3 nM.

Q: For `CC(Nc1nc(Nc2cn(C)cn2)c2cnn(C)c2n1)c1ncc(F)cn1` (single isomer, unassigned) [Example 11(a), N^6-[1-(5-Fluoropyrimidin-2-yl)ethyl]-1-methyl-N^4-(1-methyl-1H-imidazol-4-yl)-1H-pyrazolo[3,4-d]pyrimidine-4,6-diamine], which IC50 is on record?
A: Its IC50 is 6400 nM.

Q: Which IC50 does the source give for `CC(Nc1nc(Nc2cn(C)cn2)c2ccsc2n1)c1ncc(F)cn1` (single isomer, unassigned) [Example 1(b), N^2-[1-(5-Fluoropyrimidin-2-yl)ethyl]-N^4-(1-methyl-1H-imidazol-4-yl)thieno[2,3-d]pyrimidine-2,4-diamine] here?
A: The IC50 was < 3 nM.

Q: For `C[C@H](Nc1nc(Nc2cn(C)cn2)c2ccc(Cl)nc2n1)c1ncc(F)cn1` [Example 42, 7-Chloro-N^2-[(1S)-1-(5-fluoropyrimidin-2-yl)ethyl]-N^4-(1-methyl-1H-imidazol-4-yl)pyrido[2,3-d]pyrimidine-2,4-diamine], which IC50 is on record?
A: Its IC50 is < 3 nM.

Q: For `CC(Nc1nc(Nc2cn(C)cn2)c2ccccc2n1)c1ncc(F)cn1` (single isomer, unassigned) [Example 45(b), N^2-[1-(5-Fluoropyrimidin-2-yl)ethyl]-N^4-(1-methyl-1H-imidazol-4-yl)quinazoline-2,4-diamine], which IC50 is on record?
A: The IC50 was 3 nM.

Q: For `CC(Nc1nc(Nc2cn(C)cn2)c2cnn(C)c2n1)c1ncc(F)cn1` (single isomer, unassigned) [Example 11(b), N^6-[1-(5-Fluoropyrimidin-2-yl)ethyl]1-methyl-N^4-(1-methyl-1H-imidazol-4-yl)-1H-pyrazolo[3,4-d]pyrimidine-4,6-diamine], which IC50 is on record?
A: Its IC50 is < 3 nM.

Q: `CC(Nc1nc(Nc2cn(C)cn2)c2cc(F)cnc2n1)c1ncc(F)cn1` (single isomer, unassigned) [Example 38(a), 6-Fluoro-N^2-[1-(5-fluoropyrimidin-2-yl)ethyl]-N^4-(1-methyl-1H-imidazol-4-yl)pyrido[2,3-d]pyrimidine-2,4-diamine] was tested. Which IC50 did it give?
A: The IC50 was 100 nM.

From patent US20110201628A1, “HETEROCYCLIC JAK KINASE INHIBITORS” (priority 2008, published 2011)
